# Measurements reported in ChEMBL document CHEMBL1201862, “PubChem BioAssay data set” (2004).
# The source made the active and inactive calls.
# How the values were obtained:
# Caspase-3 = biological target: T1, Caspase-3 (Homo sapiens, UniProt P42574); type: functional;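 also: Dose-response selectivity test against caspase-3 for candidate inhibitors of sentrin-specific proteases (SENPs)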
# T1 sequence (P42574 whole entry): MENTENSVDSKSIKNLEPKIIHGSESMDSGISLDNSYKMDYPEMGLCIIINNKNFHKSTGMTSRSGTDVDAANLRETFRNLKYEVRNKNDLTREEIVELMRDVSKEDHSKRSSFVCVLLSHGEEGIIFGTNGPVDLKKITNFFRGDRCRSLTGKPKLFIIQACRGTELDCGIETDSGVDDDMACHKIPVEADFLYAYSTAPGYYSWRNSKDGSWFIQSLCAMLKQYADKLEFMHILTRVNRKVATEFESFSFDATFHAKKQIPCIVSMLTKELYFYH
# [1] = biological target: T2, Sentrin-specific protease 7 (Homo sapiens, UniProt Q9BQF6); type: functional;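 also: Luminescence-based dose-response confirmation of ultra-high-throughput screening hits, measuring inhibition of SENP7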
# T2 sequence (Q9BQF6 whole entry): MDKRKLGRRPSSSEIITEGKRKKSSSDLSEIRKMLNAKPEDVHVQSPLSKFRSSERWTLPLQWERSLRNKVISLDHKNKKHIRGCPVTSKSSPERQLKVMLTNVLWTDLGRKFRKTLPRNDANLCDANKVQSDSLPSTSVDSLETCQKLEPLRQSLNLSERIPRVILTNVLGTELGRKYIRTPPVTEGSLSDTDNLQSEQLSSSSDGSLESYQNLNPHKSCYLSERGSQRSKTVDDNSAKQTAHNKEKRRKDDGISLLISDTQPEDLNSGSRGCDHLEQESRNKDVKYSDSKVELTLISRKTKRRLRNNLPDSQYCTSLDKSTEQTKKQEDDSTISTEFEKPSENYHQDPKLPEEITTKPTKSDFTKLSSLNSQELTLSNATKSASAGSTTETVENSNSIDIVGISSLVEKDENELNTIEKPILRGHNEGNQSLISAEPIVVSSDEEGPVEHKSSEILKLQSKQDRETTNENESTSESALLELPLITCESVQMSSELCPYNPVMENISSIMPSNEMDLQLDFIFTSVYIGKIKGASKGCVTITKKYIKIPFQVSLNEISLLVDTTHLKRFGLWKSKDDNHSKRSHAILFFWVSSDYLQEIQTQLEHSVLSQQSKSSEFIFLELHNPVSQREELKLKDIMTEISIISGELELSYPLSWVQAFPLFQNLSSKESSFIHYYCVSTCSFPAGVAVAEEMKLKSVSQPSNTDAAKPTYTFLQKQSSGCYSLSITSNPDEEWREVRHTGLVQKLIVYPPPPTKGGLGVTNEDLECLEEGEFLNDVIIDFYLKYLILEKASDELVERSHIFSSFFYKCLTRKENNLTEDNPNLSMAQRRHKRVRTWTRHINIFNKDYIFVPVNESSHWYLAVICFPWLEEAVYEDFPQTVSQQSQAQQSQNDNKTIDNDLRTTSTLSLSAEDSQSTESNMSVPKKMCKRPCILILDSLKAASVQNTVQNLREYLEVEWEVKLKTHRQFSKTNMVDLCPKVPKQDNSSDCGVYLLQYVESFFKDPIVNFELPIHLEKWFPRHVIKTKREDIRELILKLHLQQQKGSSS
# [2] = biological target: T3, Sentrin-specific protease 6 (Homo sapiens, UniProt Q9GZR1); type: functional;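 also: Luminescence-based dose-response confirmatory assay of SENP6 inhibition, following up an ultra-high-throughput screen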
# T3 sequence (Q9GZR1 whole entry): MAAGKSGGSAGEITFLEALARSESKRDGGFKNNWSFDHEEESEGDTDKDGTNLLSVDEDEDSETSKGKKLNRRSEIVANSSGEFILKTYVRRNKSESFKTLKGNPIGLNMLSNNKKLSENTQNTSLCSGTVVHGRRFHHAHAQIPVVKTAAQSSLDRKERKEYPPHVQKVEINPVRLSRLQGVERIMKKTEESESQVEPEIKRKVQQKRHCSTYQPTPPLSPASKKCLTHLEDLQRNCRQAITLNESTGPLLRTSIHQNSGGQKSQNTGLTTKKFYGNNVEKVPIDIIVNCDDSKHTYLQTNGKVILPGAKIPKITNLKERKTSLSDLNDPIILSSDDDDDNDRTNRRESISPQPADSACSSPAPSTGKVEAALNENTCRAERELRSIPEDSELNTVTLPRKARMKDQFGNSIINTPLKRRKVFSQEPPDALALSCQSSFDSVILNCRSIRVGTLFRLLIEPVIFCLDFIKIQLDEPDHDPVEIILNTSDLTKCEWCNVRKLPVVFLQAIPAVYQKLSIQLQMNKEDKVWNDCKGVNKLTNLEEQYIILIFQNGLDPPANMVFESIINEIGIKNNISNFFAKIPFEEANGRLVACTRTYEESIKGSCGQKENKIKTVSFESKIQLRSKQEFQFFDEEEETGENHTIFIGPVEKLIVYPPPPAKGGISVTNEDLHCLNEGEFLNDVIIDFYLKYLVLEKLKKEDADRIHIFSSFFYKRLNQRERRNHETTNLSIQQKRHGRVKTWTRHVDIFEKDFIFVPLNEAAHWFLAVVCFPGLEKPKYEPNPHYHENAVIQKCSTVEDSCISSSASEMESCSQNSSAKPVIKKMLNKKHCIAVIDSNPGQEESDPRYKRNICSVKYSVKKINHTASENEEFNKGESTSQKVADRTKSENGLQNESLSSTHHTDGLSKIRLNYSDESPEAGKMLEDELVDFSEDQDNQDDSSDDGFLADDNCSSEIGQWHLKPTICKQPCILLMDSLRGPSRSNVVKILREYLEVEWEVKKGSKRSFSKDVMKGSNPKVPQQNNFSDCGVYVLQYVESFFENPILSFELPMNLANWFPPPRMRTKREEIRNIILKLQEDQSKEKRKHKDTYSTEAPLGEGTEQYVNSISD
# [3] = biological target: T4, Sentrin-specific protease 8 (Homo sapiens, UniProt Q96LD8); type: functional;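 also: luminescence read-out of SENP8 inhibition, dose-response confirmation following an ultra-high-throughput screen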
# T4 sequence (Q96LD8 whole entry): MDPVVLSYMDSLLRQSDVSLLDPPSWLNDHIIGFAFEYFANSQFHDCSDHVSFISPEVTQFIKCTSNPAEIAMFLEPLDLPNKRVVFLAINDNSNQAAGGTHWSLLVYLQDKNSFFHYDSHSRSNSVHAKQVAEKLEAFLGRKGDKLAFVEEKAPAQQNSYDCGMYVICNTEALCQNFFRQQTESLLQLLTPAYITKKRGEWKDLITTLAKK
# [4] = biological target: T5, Oxysterols receptor LXR-beta (Homo sapiens, UniProt P55055); type: functional, cell-based;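 also: agonist activity at LXR measured by a cell-based luminescence readout across a dose range, run as a counterscreen for daf-12 agonists; potency for activation of Gal4-LXR reporter so compounds are agonists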
# T5 sequence (P55055 whole entry): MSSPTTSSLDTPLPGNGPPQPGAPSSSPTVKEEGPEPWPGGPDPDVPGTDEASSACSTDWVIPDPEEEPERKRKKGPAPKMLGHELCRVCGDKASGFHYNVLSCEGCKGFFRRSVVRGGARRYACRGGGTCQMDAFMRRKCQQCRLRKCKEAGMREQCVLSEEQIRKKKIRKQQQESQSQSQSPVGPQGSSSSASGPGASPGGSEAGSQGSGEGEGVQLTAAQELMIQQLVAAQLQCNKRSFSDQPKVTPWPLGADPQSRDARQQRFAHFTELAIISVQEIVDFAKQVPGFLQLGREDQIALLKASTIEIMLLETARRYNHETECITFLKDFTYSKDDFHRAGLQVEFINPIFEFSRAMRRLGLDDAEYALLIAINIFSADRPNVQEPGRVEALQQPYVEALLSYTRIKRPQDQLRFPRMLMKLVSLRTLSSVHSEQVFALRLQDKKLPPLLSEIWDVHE
# [5] = biological target: NAD-dependent protein deacylase sirtuin-5, mitochondrial (Homo sapiens, UniProt Q9NXA8); assay: sirtuin-5 deacylation blockers, concentration series – biochemical, fluorescence imaging, cherry-pick, set 5, dose response (AID 720591);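 also: desuccinylation of succinyl peptide AMC substrate read as fluorescence after trypsin release; potency of inhibitors that lower fluorescence and may act on trypsin instead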
# HEK293 = assay: cells; type: functional, cell-based; conditions: Homo sapiens
# [6] = biological target: T6, Nuclear receptor subfamily 0 group B member 1 (Homo sapiens, UniProt P51843); assay: Luminescence-based cell-based high throughput dose response assay for inhibitors of the orphan nuclear receptor subfamily 0, group B, member 1 (DAX1; NR0B1). [Related pubchem assays (depositor defined):AID504766, AID504790]; type: functional
# T6 sequence (P51843 whole entry): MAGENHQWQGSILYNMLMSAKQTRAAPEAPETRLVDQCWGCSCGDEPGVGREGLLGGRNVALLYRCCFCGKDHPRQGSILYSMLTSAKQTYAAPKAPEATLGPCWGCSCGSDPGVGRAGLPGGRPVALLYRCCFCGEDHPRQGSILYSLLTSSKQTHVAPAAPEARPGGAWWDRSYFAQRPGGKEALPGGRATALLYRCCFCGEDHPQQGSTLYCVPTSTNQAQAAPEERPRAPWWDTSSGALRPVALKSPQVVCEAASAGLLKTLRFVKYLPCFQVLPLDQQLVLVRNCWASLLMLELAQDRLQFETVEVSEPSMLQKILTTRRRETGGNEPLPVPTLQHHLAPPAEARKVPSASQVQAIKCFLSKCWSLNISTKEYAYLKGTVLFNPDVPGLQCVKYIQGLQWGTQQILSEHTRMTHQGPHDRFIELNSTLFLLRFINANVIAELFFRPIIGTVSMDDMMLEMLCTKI
# [7] = Luminescence-based cell-based high throughput dose response assay to identify activators of the DAF-12 from the parasite S. stercoralis (ssDAF-12).; type: functional
# [8] = biological target: T5, Oxysterols receptor LXR-beta; assay: LXR agonists, Gal4 luciferase reporter, dose response, counter-screen for ssDAF-12 agonist project, cell-based, luminescence, HEK293, S. stercoralis campaign (AID 720737); type: functional; conditions: read-out: IC50 (the source's name)
# [9] = biological target: T7, Mannose-6-phosphate isomerase (Homo sapiens, UniProt P34949); assay: MPI inhibition at elevated mannose 6-phosphate – biochemical, fluorescence intensity, high mannose 6-phosphate, primary screen (AID 1220)
# T7 sequence (P34949 whole entry): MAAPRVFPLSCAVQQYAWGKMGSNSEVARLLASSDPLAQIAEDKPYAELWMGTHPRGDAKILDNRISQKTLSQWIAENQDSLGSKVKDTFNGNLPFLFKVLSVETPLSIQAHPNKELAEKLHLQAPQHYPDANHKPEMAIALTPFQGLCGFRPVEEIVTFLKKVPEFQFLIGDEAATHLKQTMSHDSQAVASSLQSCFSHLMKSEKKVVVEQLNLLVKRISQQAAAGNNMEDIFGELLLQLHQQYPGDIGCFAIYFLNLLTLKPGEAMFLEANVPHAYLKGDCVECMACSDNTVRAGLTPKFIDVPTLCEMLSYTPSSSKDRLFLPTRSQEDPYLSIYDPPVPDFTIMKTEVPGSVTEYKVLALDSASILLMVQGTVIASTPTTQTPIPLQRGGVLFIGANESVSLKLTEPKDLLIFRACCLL
# Protein Tat = biological target: T8, Protein Tat (Human immunodeficiency virus type 1 group M subtype B (isolate HXB2)(HIV-1), UniProt P04608); type: functional;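 also: tat binding to TAR RNA read out by fluorescence polarization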
# T8 sequence (P04608 whole entry): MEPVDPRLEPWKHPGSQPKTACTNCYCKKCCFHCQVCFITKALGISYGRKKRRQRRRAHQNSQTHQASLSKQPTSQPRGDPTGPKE
# [10] = P. falciparum Dd2 growth inhibitors, dose response, SYBR Green, cherry-picked samples (AID 1159567); type: functional, cell-based
# [11] = toxicity to human hepatoma HepG2 cells – cell-based, cherry-picked samples, cytotoxicity control, dose response (AID 1159577); type: functional
# [12] = blockers of bursicon-stimulated LGR2 cAMP reporter – cell-based, HEK293, CRE-luciferase reporter, cherry pick, set 2, dose response (AID 743343); type: functional;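 also: transfected cells were stimulated with diluted bursicon conditioned medium after compound addition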
# [13] = blockade of melanocortin 4 receptor signaling – cell-based, plate reader, cherry pick, counter-screen for LGR2 antagonist project, dose response (AID 743444); type: functional;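 also: transfected HEK 293 cells stimulated with alpha-MSH peptide; potency of inhibitors of the alpha-MSH evoked signal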
# [14] = viability loss in HEK293 cells – cell-based, plate reader, cherry-picked samples, cytotoxicity control, dose response (AID 743446); type: functional
# [15] = biological target: T9, Rac GTPase-activating protein 1 (Homo sapiens, UniProt Q9H0H5); assay: blockers of MgcRacGAP-driven Rac1 GTP hydrolysis – biochemical, ADP Hunter fluorescence, primary and confirmatory, confirmation (AID 624330); type: functional
# T9 sequence (Q9H0H5 whole entry): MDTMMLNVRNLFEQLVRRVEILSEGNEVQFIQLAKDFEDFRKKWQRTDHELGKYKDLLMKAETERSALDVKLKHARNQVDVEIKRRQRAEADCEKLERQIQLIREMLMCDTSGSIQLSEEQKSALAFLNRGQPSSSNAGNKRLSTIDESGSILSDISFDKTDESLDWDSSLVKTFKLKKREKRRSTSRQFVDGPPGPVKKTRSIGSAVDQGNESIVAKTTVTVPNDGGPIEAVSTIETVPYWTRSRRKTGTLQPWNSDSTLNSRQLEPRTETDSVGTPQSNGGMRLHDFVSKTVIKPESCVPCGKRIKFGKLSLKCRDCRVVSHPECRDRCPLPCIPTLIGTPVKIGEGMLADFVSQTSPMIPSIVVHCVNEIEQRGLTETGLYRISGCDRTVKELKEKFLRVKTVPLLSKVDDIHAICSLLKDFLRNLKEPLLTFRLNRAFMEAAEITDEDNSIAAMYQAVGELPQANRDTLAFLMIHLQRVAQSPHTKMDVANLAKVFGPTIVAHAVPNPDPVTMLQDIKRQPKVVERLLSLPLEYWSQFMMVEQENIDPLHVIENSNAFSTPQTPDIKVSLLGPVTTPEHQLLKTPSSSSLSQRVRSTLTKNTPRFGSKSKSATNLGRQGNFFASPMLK
# Chain of NAD-dependent protein deacylase sirtuin-5, mitochondrial (Q9NXA8 whole entry): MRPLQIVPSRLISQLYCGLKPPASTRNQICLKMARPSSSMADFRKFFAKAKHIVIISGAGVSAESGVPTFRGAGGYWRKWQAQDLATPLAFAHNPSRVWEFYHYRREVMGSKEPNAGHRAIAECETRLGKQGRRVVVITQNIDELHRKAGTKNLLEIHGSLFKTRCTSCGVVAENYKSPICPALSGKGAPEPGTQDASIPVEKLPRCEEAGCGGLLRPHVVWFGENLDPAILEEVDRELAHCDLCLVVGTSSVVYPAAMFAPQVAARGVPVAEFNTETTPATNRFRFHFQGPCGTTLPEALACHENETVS
structure (smiles),measurement,setting,value
CCOC(=O)c1c(C)[nH]c(N=Nc2cccc(OC)c2)c1C,IC50,Caspase-3,29.1 µM (active)
same,IC50,[1],3.75 µM (active)
same,IC50,[2],11.7 µM (active)
same,IC50,[3],17.3 µM (active)
same,EC50,[4],> 67.5 µM (inactive)
O=C(COC(=O)c1nnc(O)c2ccccc12)Nc1ccccc1,AC50,[5],> 30 µM (inactive)
COc1ccc(Cl)cc1C(=O)Nc1ccc2c(c1)OCCO2,IC50,HEK293,> 67.5 µM (inactive)
same,IC50,[6],> 67.5 µM (inactive)
same,IC50,[7],> 67.5 µM (inactive)
same,EC50,[8],> 67.5 µM (inactive)
CCN(CC)c1ccc(N/C=C2\C(=O)NC(=O)N(CCc3ccc(OC)c(OC)c3)C2=O)cc1,IC50,[9],> 50 µM (not active)
O=C(c1ccco1)N1CCN(C(c2ccccn2)c2nnnn2C2CCCC2)CC1 (stereo unspecified),IC50,Protein Tat,> 100 µM (active)
COc1cccc(S(=O)(=O)N2CCCCN3[C@@H](CO)[C@@H](c4ccc(C5=CCCCC5)cc4)[C@@H]3C2)c1,AC50,[10],1.62 µM (active)
same,AC50,[11],10.8 µM (active)
Cc1ccc(C)c(N2CCN(C(=O)c3cccn4c(=O)c5sccc5nc34)CC2)c1,AC50,[5],26.9 µM (active)
Cc1cccc2sc(NC(=O)C3CC3)nc12,AC50,[5],> 30 µM (inactive)
Clc1cccc(N2Cc3cc(-c4ccccc4)ccc3-n3nncc3C2)c1,AC50,[12],29.4 µM (active)
same,AC50,[13],34.1 µM (active)
same,AC50,[14],20.7 µM (active)
Cc1cc(C(=O)NNC(=O)/C=C/c2ccco2)c(C)o1,IC50,[15],125 µM (active)
same,IC50,Protein Tat,> 100 µM (active)
